Data on 13 molecules can be found in EPA's ToxValDB 9.5.

The test system of data set [1] is Canidae. To be noted: chronic, oral, Dog Other.
The subject of data set [2] is Canidae. The following applies: chronic, oral, M/F, Dog Other.
The subject of data set [3] is Mus musculus. To be noted: subchronic; duration: 60 days; oral; gavage; Testes: Decreased sperm counts + Testes: Seminiferous tubule degeneration.
Data set [4] has as its system Rattus norvegicus. The following applies: oral.
Data set [5] has as its system Rattus norvegicus. To be noted: chronic, duration: 2 years, M/F.
The test system of data set [6] is Mus musculus. The following applies: uterotrophic, duration: 3 days, Active.
Data set [7] relates to Rattus norvegicus. To be noted: for LEL: uterotrophic, Active.
In the next data set the test system is Anas platyrhynchos. The following applies: oral.
Data set [8] relates to Rattus norvegicus. The following applies: repeat dose other; oral.
The test system of data set [9] is Canidae. To be noted: subchronic; duration: 90 days; oral; diet; Beagle.
Data set [10] deals with Rattus norvegicus. To be noted: for LD50: acute.
For a further data set, the system named is Gallus sp. The following applies: subchronic; duration: 90 days; oral; F; neurotoxicity.
A further data set has as its system Homo sapiens. The following applies: clinical; duration: 1 days; inhalation; nose only; unknown; respiratory.
Another data set has as its system Oryctolagus sp. To be noted: New Zealand; for NOAEL: duration: 13 days, oral, gavage.
The test system of data set [11] is Rattus norvegicus. The following applies: chronic; duration: 2 years; oral; diet; Liver: Increased weight.
The subject of another data set is Neovison sp. To be noted: repeat dose other; oral; Mink.
For the next data set, the system named is Coturnix japonica. The following applies: repeat dose other; oral.
The mark [12] stands for this setting: duration: 12 months, diet, increased relative liver weight in male dogs.
[13] abbreviates: short-term, duration: 28 days, oral, gavage.
Where [14] appears, read: subchronic, duration: 90 days, oral, diet, Sprague-Dawley.
Setting [15] is: Hershberger, duration: 10 days, oral, gavage, Sprague-Dawley, active + Androgenic + Negative + androgenic.
Where [16] appears, read: reproduction developmental, duration: 10 days, oral, gavage, F, CD.
The mark [17] stands for this setting: oral, diet, liver weight increased males.

Where “and” joins values, the source holds several entries; their conditions need not be identical. Equal values may be shown once.

A word on the LOAEL: it is the lowest tested level that showed an adverse finding. Turning to `CC(Oc1cc(Cl)c(Cl)cc1Cl)C(=O)O` (stereo not drawn) [2-(2,4,5-Trichlorophenoxy)propionic acid], the NOEL in the data set with Canidae [1] (duration: 2 years, diet, Liver: Histopathology) came to 0.75 mg/kg-day. In addition, in the data set with Canidae [2] (histopathological liver), the lowest-observed-adverse-effect level (LOAEL) was 2.5 mg/kg-day and the NOEL worked out at 0.75 mg/kg-day.

In general, NOAEL refers to the highest tested level that showed no adverse finding. On to `C=CC#N` [Acrylonitrile], for which the NOAEL with Mus musculus [3] was found to be 1 mg/kg-day. The LOAEL in the data set with Rattus norvegicus [4] (chronic, duration: 22 months, drinking water, M/F, Spartan Sprague-Dawley, hematological) was found to be 0.09 mg/kg-day; with Rattus norvegicus [5] (inhalation, Degeneration and inflammation of nasal respiratory epithelium + hyperplasia of mucous secreting cells) it was 43 mg/m3.

As for `O=C(O)c1ccccc1` [Benzoic acid], in the data set with Mus musculus [6] (injection, subcutaneous), the LEL was 1 µg/100 g and the “LEL (ug/100 g BW)” value was 10.

In the case of `O=C(OCc1ccccc1)c1ccccc1O` [Benzyl salicylate], the LEL in the data set with Rattus norvegicus [7] (duration: 3 days, oral) was 3.7 mg/kg-day; in the data set with Mus musculus [6] (oral), 11.1 mg/kg-day.

In turn, `CCSC(=O)N(CC(C)C)CC(C)C` [Butylate] displayed an NOEL in the data set with Canidae [1] (duration: 12 months, capsule, Liver: Increased relative weight) of 5 mg/kg-day. In the data set with Canidae [2] (setting [12]), this molecule yielded an LOAEL of 25 mg/kg-day and a no-observed-adverse-effect level (NOAEL) of 5 mg/kg-day.

Turning to `[Cl][Cd][Cl]` [Cadmium chloride], in the data set with Anas platyrhynchos, the lowest observed adverse effect level (LOAEL) turned out to be 20 mg/kg-day and the NOAEL was found to be 1.45 mg/kg-day. In the data set on Rattus norvegicus [8], this molecule registered an LOAEL of 10 mg/kg-day and a no observed adverse effect level (NOAEL) of 1 mg/kg-day.

Broadly, the LD50 is the dose at which mortality reaches 50%. A higher LD50 goes with lower toxicity. `CCCCCCCCCCCCCCCCc1c(Oc2ccccc2S(=O)(=O)O)cccc1S(=O)(=O)O.[Na+].[Na+]` [Disodium hexadecyl(sulfophenoxy)benzenesulfonate]: the figures for the no observed adverse effect level (NOAEL) in the data set on Canidae [9], with Rattus norvegicus [10] (setting [13]) and in the data set with Rattus norvegicus [10] (setting [14]) were 200 mg/kg-day, 250 mg/kg-day and 100 mg/kg-day, respectively. Besides, the 50% lethal dose (LD50) in the data set on Rattus norvegicus [10] (dermal, occlusive, Sprague-Dawley) was more than 2000 mg/kg; in the data set on Rattus norvegicus [10] (dermal, occlusive, Wistar) it was more than 2000 mg/kg; in the data set with Rattus norvegicus [10] (oral, gavage) it was more than 3980 mg/kg; in the data set on Rattus norvegicus [10] (oral, gavage, Fischer 344), 1500 mg/kg and > 2000 mg/kg; in the data set on Rattus norvegicus [10] (oral, gavage, Sprague-Dawley), 7740 mg/kg and > 5000 mg/kg; in the data set on Rattus norvegicus [10] (oral, gavage, Wistar) it was more than 5000 mg/kg. Moreover, the LOAEL stood at 1000 mg/kg-day with Rattus norvegicus [10] (setting [13]) and 200 mg/kg-day with Rattus norvegicus [10] (setting [14]).

`CCOP(=S)(Oc1ccc([N+](=O)[O-])cc1)c1ccccc1` (stereo not drawn) [EPN]: in the data set with Gallus sp., the LEL stood at 0.1 mg/kg-day and the NOEL is 0.01 mg/kg-day.

For the molecule `C[C@]12CC[C@H]3C(=CCc4cc(O)ccc43)[C@@H]1CCC2=O` [Equilin], in the data set with Rattus norvegicus [7] (setting [15]), the LOEL is 2 mg/kg-day and the NOEL is 0.5 mg/kg-day. This molecule also gave an LEL with Rattus norvegicus [7] (duration: 3 days, injection, subcutaneous) of 2 mg/kg-day. The molecule also yielded an LEL in the data set with Rattus norvegicus [7] (duration: 7 days, injection, subcutaneous) of 0.00025 mg/day. Besides, the “LEL (gamma)” value in the data set on Mus musculus [6] (injection, subcutaneous) is 1 and 3.

`FF` [Fluorine] displayed an NOAEL with Homo sapiens of 15.5 mg/m3.

As for `O=C(O)CCCC(=O)O` [Glutaric acid], the “LOAEL (% diet)” value was determined as 3 in the data set with Canidae [9] and 2 with Rattus norvegicus [10] (setting [14]). Also, the entries for the “NOAEL (% diet)” value in the data set on Canidae [9] and with Rattus norvegicus [10] (setting [14]) were not below 2 and not below 1, respectively. Also, the LD50 with Rattus norvegicus [10] (oral, Sprague-Dawley) is 2750 mg/kg; with Oryctolagus sp. (acute, dermal, occlusive) it was more than 10000 mg/kg. The NOAEL was 1300 mg/kg-day in the data set with Rattus norvegicus [10] (developmental, duration: 10 days, oral, gavage, CD); 125 mg/kg-day in the data set on Rattus norvegicus [10] (setting [16]); not below 1000 mg/kg-day in the data set with Rattus norvegicus [10] (reproduction developmental, duration: 10 days, oral, gavage, F, Sprague-Dawley); more than 500 mg/kg-day in the data set on Oryctolagus sp. (developmental); more than 500 mg/kg-day with Oryctolagus sp. (reproduction developmental, F). In the data set with Rattus norvegicus [10] (setting [16]), this molecule came in with an LOAEL of 400 mg/kg-day.

As to `ClC1=C(Cl)C2(Cl)C3C(Cl)C=CC3C1(Cl)C2(Cl)Cl` (stereo not drawn) [Heptachlor], the NOEL in the data set with Rattus norvegicus [11] and with Rattus norvegicus [5] (setting [17]) was 0.15 mg/kg-day throughout. Also, the LOAEL in the data set on Neovison sp. was 1 mg/kg-day; in the data set with Rattus norvegicus [4] (reproduction developmental, duration: 14 days, gavage, F, CFT-Wistar, reproductive), 1.8 mg/kg-day; in the data set on Rattus norvegicus [4] (reproduction developmental, duration: 364 days, gavage, M/F, Sprague-Dawley, immunological, neurological), 0.03 mg/kg-day. Further, in the data set with Neovison sp., the no observed adverse effect level (NOAEL) is 0.1 mg/kg-day. Besides, the LEL in the data set with Rattus norvegicus [5] (setting [17]) came out at 0.25 mg/kg-day.

In the data set on Rattus norvegicus [8], `[Mn+2].[Mn+3].[Mn+3].[O-2].[O-2].[O-2].[O-2]` [Manganese oxide (Mn3O4)] showed an LOAEL of 284 mg/kg-day. The NOAEL was 88 mg/kg-day in the data set on Rattus norvegicus [8] and 997 mg/kg-day in the data set with Coturnix japonica.
